Measurements published in patent publication US10221171B2, “Oxathiazole thiazolium Hsp 70 inhibitors” (THE REGENTS OF THE UNIVERSITY OF CALIFORNIA, priority 2015, dated 2019).
Where two headings read alike, the source gives them in different places.

Legend:
Type in all cases: cell-based
MDA-MB-231 = test: MTT cell viability assay, MDA-MB-231; settings: Homo sapiens
Method: (§1) Cells were then treated with compound at various concentrations in 0.2 mL media. After the 72-hour incubation period, cells were washed in PBS (3×100 μL), and 10 μL MTT reagent was added with 100 μL fresh media. Cells were then incubated for 4 hr in a humidified chamber at 37° C. with 5% CO2. Insoluble formazan crystals were solubilized by addition of 0.1 mL detergent solution (4 hr at room temp., dark). Resulting colored solutions were then quantified at an absorbance of 570 nm.

MEF (C57BL/6) = test: MTT cell viability assay, MEF (C57BL/6); settings: Mus musculus
Method: as §1

MCF-7 = test: MTT cell viability assay, MCF-7; settings: Homo sapiens, MTT, 72-hour incubation, read-out: IC50/μM MCF-7
Method: as §1

[1] = MTT, 72-hour incubation, read-out: IC50/μM MEF (C57BL/6)
[2] = MDA-MB-231, 72 h, 72-hour incubation
[3] = 72 h, read-out: IC50/μM MEF (C57BL/6), MTT, 72-hour incubation

Row | SMILES | IC50 (MDA-MB-231; MDA-MB-231, 72-hour incubation) [µM] | IC50 (MCF-7; MCF7) [µM] | IC50 (MEF (C57BL/6); [1]) [µM] | IC50 (MDA-MB-231; [2]) [µM] | IC50 (MEF (C57BL/6); [3]) [µM] | IC50 (MCF-7; MCF7, 72 h) [µM]
1 | CCn1c(=O)/c(=C2\Sc3ccc(C)cc3N2C)s/c1=C\c1scc[n+]1Cc1ccccc1OC(F)(F)F [JG-368] | – | – | – | 0.18 ± 0.01 | 1.4 ± 0.1 | 0.089 ± 0.006
2 | CCn1c(=O)/c(=C2\Sc3cc(SC)ccc3N2C)s/c1=C\c1scc[n+]1Cc1ccsc1C(=O)OC [JG-313] | 0.16 ± 0.02 | 0.2 ± 0.01 | 1.4 ± 0.1 | – | – | –
3 | CCn1c(=O)/c(=C2\Sc3cc(Cl)ccc3N2C)s/c1=C\c1scc[n+]1Cc1csc(NC(C)=O)n1 [JG-261] | > 20 | > 5 | – | – | 4.2 ± 0.6 | –
4 | CCn1c(=O)/c(=C2\Sc3cc(Cl)ccc3N2C)s/c1=C\c1scc[n+]1Cc1ccccc1CO [JG-329] | 0.39 ± 0.06 | 0.58 ± 0.1 | 7.3 ± 2.1 | – | – | –
5 | CCn1c(=O)/c(=C2\Sc3ccc(OC)cc3N2C)s/c1=C\c1scc[n+]1Cc1ccccc1OC(F)(F)F [JG-400] | – | – | – | 0.16 ± 0.01 | 2.2 ± 0.1 | 0.16 ± 0.02
6 | CCc1ccc2c(c1)S/C(=c1/s/c(=C\c3scc[n+]3Cc3cc(C)sc3C)n(CC)c1=O)N2C [JG-347] | 0.21 ± 0.01 | 0.095 ± 0.008 | 0.6 ± 0.01 | – | – | –
7 | CCn1c(=O)/c(=C2\Sc3cc(Cl)ccc3N2C)s/c1=C\c1scc[n+]1Cc1ccccc1SC(F)(F)F [JG-253] | – | – | – | 0.16 ± 0.01 | 3.7 ± 0.2 | 0.13 ± 0.01
8 | CCn1c(=O)/c(=C2\SCCN2C)s/c1=C\c1ccccn1 [JG-273] | > 20 | > 5 | > 10 | – | – | –
9 | CCn1c(=O)/c(=C2\Sc3cc(Cl)ccc3N2C)s/c1=C\c1scc[n+]1Cc1cccc(Cl)c1 [JG-271] | – | – | – | 0.51 ± 0.06 | 0.69 ± 0.03 | 0.26 ± 0.02
10 | CN1/C(=c2\s/c(=C\c3scc[n+]3Cc3ccccc3)n(C)c2=O)Sc2cc(F)cc(F)c21 [JG-282] | 0.26 ± 0.03 | 0.29 ± 0.04 | 2.5 ± 0.1 | – | – | –
11 | CCn1c(=O)/c(=C2\Sc3cc(C)ccc3N2C)s/c1=C\c1scc[n+]1C(C)c1ccccc1 (stereo not drawn) [JG-318] | 0.11 ± 0.01 | 0.16 ± 0.03 | 1.1 ± 0.1 | – | – | –

More lines, main results first:

Row | IC50 (MDA-MB-231; MDA-MB-231, 72-hour incubation) [µM] | IC50 (MCF-7; MCF7) [µM] | SMILES | IC50 (MEF (C57BL/6); [1]) [µM] | IC50 (MDA-MB-231; [2]) [µM] | IC50 (MEF (C57BL/6); [3]) [µM] | IC50 (MCF-7; MCF7, 72 h) [µM]
12 | 0.1 ± 0.01 | 0.059 ± 0.007 | CCn1c(=O)/c(=C2\Sc3cc(OC)ccc3N2C)s/c1=C\c1scc[n+]1Cc1ccccc1SC(F)(F)F [JG-350] | 1.2 ± 0.1 | – | – | –
13 | 0.17 ± 0.01 | 0.087 ± 0.007 | CCc1ccc2c(c1)S/C(=c1/s/c(=C\c3scc[n+]3Cc3ccccc3SC(F)(F)F)n(CC)c1=O)N2C [JG-344] | 0.46 ± 0.03 | – | – | –
14 | 0.07 ± 0.01 | 0.069 ± 0.004 | CCn1c(=O)/c(=C2\Sc3cc(C)ccc3N2C)s/c1=C\c1scc[n+]1Cc1c(Cl)cccc1Cl [JG-371] | 0.68 ± 0.02 | – | – | –
15 | 0.19 ± 0.02 | 0.35 ± 0.03 | CCn1c(=O)/c(=C2\Sc3cc(C)ccc3N2C)s/c1=C\c1scc[n+]1CCc1ccccc1C [JG-392] | 1.2 ± 0.1 | – | – | –
16 | 0.1 ± 0.02 | 0.12 ± 0.01 | CCn1c(=O)/c(=C2\Sc3cc(OC)ccc3N2C)s/c1=C\c1scc[n+]1Cc1ccccc1C(F)(F)F [JG-304] | 1.4 ± 0.06 | – | – | –
17 | 0.25 ± 0.01 | 0.22 ± 0.02 | CCc1ccc2c(c1)S/C(=c1/s/c(=C\c3scc[n+]3Cc3c(C)cccc3C)n(CC)c1=O)N2C [JG-343] | 0.64 ± 0.01 | – | – | –
18 | 0.21 ± 0.01 | 0.68 ± 0.13 | CCn1c(=O)/c(=C2\Sc3cc(OC)ccc3N2C)s/c1=C\c1scc[n+]1CCc1cccc(C(F)(F)F)c1 [JG-393] | 2.1 ± 0.1 | – | – | –
19 | 0.18 ± 0.02 | 0.12 ± 0.01 | CCn1c(=O)/c(=C2\Sc3cc(Br)ccc3N2C)s/c1=C\c1scc[n+]1Cc1ccccc1C(F)(F)F [JG-292] | 2.7 ± 0.1 | – | – | –
20 | 0.42 ± 0.03 | 0.51 ± 0.06 | CCn1c(=O)/c(=C2\Sc3cc(OC)ccc3N2C)s/c1=C\c1scc[n+]1CCc1ccc(C(F)(F)F)cc1 [JG-395] | 2.9 ± 0.1 | – | – | –
21 | 0.14 ± 0.01 | 0.17 ± 0.02 | CCn1c(=O)/c(=C2\Sc3cc(F)ccc3N2C)s/c1=C\c1scc[n+]1Cc1c(Cl)cccc1Cl [JG-338] | 1 ± 0.03 | – | – | –
22 | 0.1 ± 0.01 | 0.16 ± 0.02 | CCn1c(=O)/c(=C2\Sc3cc(OC)ccc3N2C)s/c1=C\c1scc[n+]1Cc1ccc(C(F)(F)F)o1 [JG-306] | > 10 | – | – | –
23 | 0.14 ± 0.01 | 0.27 ± 0.02 | CCn1c(=O)/c(=C2\Sc3cc(C)ccc3N2C)s/c1=C\c1scc[n+]1Cc1ccc(C(F)(F)F)o1 [JG-286] | 5 ± 0.6 | – | – | –
24 | 0.11 ± 0.01 | 0.23 ± 0.04 | CCn1c(=O)/c(=C2\Sc3cc(SC)ccc3N2C)s/c1=C\c1scc[n+]1Cc1ccccc1C [JG-310] | 2.2 ± 0.2 | – | – | –
25 | 0.25 ± 0.03 | 0.2 ± 0.02 | CCn1c(=O)/c(=C2\Sc3cc(C)ccc3N2C)s/c1=C\c1scc[n+]1CCc1ccccc1Cl [JG-380] | 0.94 ± 0.03 | – | – | –
